{
  "source": "patent US11235020B2",
  "about": "“Methods and compositions for inhibiting glyoxalase 1 (GLO1)” (priority 2013, dated 2022)",
  "key": {"[1]": {"system": "GABAA receptors in hippocampal neurons", "test": "Whole-cell patch clamp in hippocampal neurons (HN)", "assay_type": "cell-based, rat", "settings": "for increase of GABA-evoked currents: 500 nM modulator co-applied with 10 μM GABA; for increase of MG-evoked currents: 500 nM modulator co-applied with 10 μM MG", "procedure": "(§1) Reagents: All reagents were obtained from Sigma-Aldrich.\nNeurons were maintained in neurobasal medium with B27 supplement and glutamax in a humidified atmosphere with 5% CO2 at 37° C.\n(§2) Filter and sampling frequencies were 5 and 25 kHz, respectively, for voltage-clamp experiments and 1 and 10 kHz, respectively, for current-clamp recording. Experiments were performed at 32° C. using a feedback-controlled heated perfusion system (Warner Instruments). Vm, ligand-gated currents, and potassium channel currents were studied in a bath solution containing 1 mM CaCl2, 1 mM MgCl2, 4 mM KCl, 140 mM NaCl, 5 mM glucose, and 10 mM HEPES (pH 7.4). […] Electrodes were coated with Sigmacote (Sigma) prior to use.\n(§3) Ligand-gated currents: Ligand-gated currents were studied in voltage-clamp mode by application of reagents to cells held at −50 mV."}, "locomotion in Cd-1 mice": {"system": "locomotion in Cd-1 mice", "test": "Open field test after i.p. glyceraldehyde", "assay_type": "in vivo, mouse", "settings": "GA i.p., tested 10 min after injection", "procedure": "GA is rapidly converted into MG. Cd-1 mice (Charles River, Portage Mich.) were treated i.p. With vehicle (0.9% NaCl) or GA at the indicated doses. Ten minutes after injection, mice were tested in the open field (OF) test (locomotor chambers). Behavioral data were collected at 5 and 10 minutes. Because vehicle-treated mice differed in total distance traveled between the testing days, the data were not combined into a single analysis. Statistical analyses included repeated-measures anova for the factor treatment. The repeated measures were total distance (at 5 and 10 min) and % center time (at 5 and 10 min). For comparison of vehicle and GA at individual time points, a t-test was used. […] This would be an additional means of obtaining desirable clinical effects, including anxiolytic, antidepressant, anti-epileptic, and induction of sleep."}, "[2]": {"system": "GABAA receptors in macropatches excised from CGN", "test": "Macropatch recording from CGN", "assay_type": "cell-based, rat", "settings": "10 μM; SR 10 μM at the extracellular face (pipette)", "procedure": "Macropatch recording: Macropatch recording was performed with 1.5-2 MΩ electrodes filled with bath solution. The inside of excised patches was perfused with electrode solution containing the indicated reagents. SR was added to the electrode where indicated."}, "[3]": {"system": "GABAA receptors in cerebellar granule neurons", "test": "Whole-cell patch clamp in cerebellar granule neurons (CGN)", "assay_type": "cell-based, rat", "procedure": "as §1\nCulture of rat CGN: CGN were cultured from mixed-sex Sprague-Dawley rats. Tissue was dissected from 6- to 8-day-old rats. Cells were suspended in minimal essential medium supplemented with 10% fetal calf serum, 26 mM glucose, 19 mM KCl, 2 mM 1-glutamine, and penicillin/streptomycin (50 IU/ml and 50 μg/ml). Cells were seeded on poly-1-lysine-coated coverslips and incubated in a humidified atmosphere containing 5% CO2 at 37° C. After 48 hours, the culture medium was replaced with minimal essential medium supplemented with 10% horse serum, 26 mM glucose, 19 mM KCl, 2 mM 1-glutamine, penicillin/streptomycin (50 IU/ml and 50 μg/ml), and 80 μM 1-fluorodeoxyuridine. Culture medium was exchanged every three days. All recordings were made from cells between days 6 to 9 in culture.\nas §2, §3"}, "[4]": {"system": "depression-like behavior in mice", "test": "Chronic forced swim test (cFST), osmotic minipump", "assay_type": "in vivo, mouse", "settings": "fluoxetine 18 mg/kg/day, 14 days", "procedure": "To fully assess the therapeutic potential of GLO1 inhibitors, it is necessary to utilize behavioral models sensitive to chronic administration. These models are highly informative as the therapeutic onset of antidepressant action mimics clinical onset in humans. pBBG was administered by osmotic minipumps (Alzet) for 14 days at various doses (0, 5, 10, 15, 30 and 60 mg/kg/day) to establish a dose response curve. Osmotic minipumps are ideal for chronic treatment as they release a constant volume at a very slow rate minimizing the stress of multiple injections."}, "[5]": {"system": "anxiety-like behavior in C57BL6/J mice", "test": "OFT after bilateral microinjection into the basolateral amygdala (BLA)", "settings": "midazolam 4 mM, 0.5 ul bilateral into BLA, over 30 m"}, "mice": {"system": "mice", "test": "Hypothermia (rectal temperature)", "assay_type": "in vivo, mouse", "settings": "300 mg/kg i.p., B6 mice", "procedure": "Hypothermia: Thirty minutes post-injection, rectal temperature was measured with a digital thermometer."}, "[6]": {"system": "motor coordination in mice", "test": "Balance beam test", "assay_type": "in vivo, mouse", "settings": "300 mg/kg i.p., B6 mice", "procedure": "The balance beam was 97 cm×9.5 mm and elevated to 46 cm. Mice were tested on the balance beam, and missteps were counted.\nBalance beam: The balance beam test was performed as described above. Ten minutes post-injection, mice were tested on the balance beam, and missteps were recorded."}, "[7]": {"system": "anxiety-like behavior and locomotion in mice", "test": "Open field (OF) test", "assay_type": "in vivo, mouse", "settings": "B6 mice", "procedure": "OF test: Mice were placed into the center of the OF, and activity was monitored for five to ten minutes. The apparatus was illuminated to approximately 40 lux. Data were collected and processed using the manufacturer's software (AccuScan Instruments).\nOF test: Ten minutes post-injection, mice were placed into the center of the OF. The apparatus was illuminated to approximately 40 lux. Behavior was measured as described above.\nOF test replication studies: Ten to twenty minutes post-injection, mice were tested in the OF for five to ten minutes. In some experiments, behavior was scored as described above. In other experiments, mice were tested in the OF, and behavior was automatically scored by the Noldus Ethovision System. For mice tested in the Noldus system, the apparatus was illuminated to approximately 1,000 lux.\nChronic MG administration: For five days, mice were injected twice daily with vehicle or MG (4 mg/kg). Twelve hours after the final injection, mice were tested in the OF as described above.\nPure MG: Pure MG was obtained from Dr. John Termini at the City of Hope, Duarte, Calif. It was administered at the indicated doses by i.p. injection. Mice were tested as described above.\nOF test: Two hours post-injection, mice were tested in the OF test as described above. The center size was 10×10 cm. The apparatus was illuminated to approximately 40 lux."}},
  "data": [
    {"smiles": "CN1C(=O)CN=C(c2ccccc2)c2cc(Cl)ccc21", "note": "[Diazepam, diazepam]", "values": [
      {"measurement": "increase of GABA-evoked currents", "setting": "[1]", "result": "approximately 45%"},
      {"measurement": "increase of MG-evoked currents", "setting": "[1]", "result": "approximately 60%"}
    ]},
    {"smiles": "O=CC(O)CO", "note": "(stereo not drawn) [GA, glyceraldehyde]", "values": [
      {"measurement": "locomotor effect in the open field", "setting": "locomotion in Cd-1 mice", "result": "has locomotor depressant effects"}
    ]},
    {"smiles": "NCCCC(=O)O", "note": "[GABA, gamma-aminobutyric acid, reference compound]", "values": [
      {"measurement": "current on application to the intracellular face of macropatches", "setting": "[2]", "result": "did not elicit a current"}
    ]},
    {"smiles": "Br.COc1ccc(-c2ccc(=N)n(CCCC(=O)O)n2)cc1", "note": "[SR, reference compound]", "values": [
      {"measurement": "inhibition of Vm changes induced by MG and GABA", "setting": "[3]; 10 μM SR, 10 μM MG or GABA", "result": "> 95", "unit": "%"},
      {"measurement": "inhibition of current-density changes induced by MG and GABA", "setting": "[3]; 10 μM SR, 10 μM MG or GABA", "result": "> 95", "unit": "%"},
      {"measurement": "current on application to the intracellular face of macropatches", "setting": "[2]", "result": "this current was inhibited when SR was applied to the extracellular face"}
    ]},
    {"smiles": "CNCCC(Oc1ccc(C(F)(F)F)cc1)c1ccccc1", "note": "(stereo not drawn) [fluoxetine]", "values": [
      {"measurement": "depression-like behavior in the cFST", "setting": "[4]", "result": "reduces depression-like behavior in the forced swim test"}
    ]},
    {"smiles": "Cc1ncc2n1-c1ccc(Cl)cc1C(c1ccccc1F)=NC2", "note": "[midazolam]", "values": [
      {"measurement": "increase of GABA-evoked currents", "setting": "[1]", "result": "approximately 27%"},
      {"measurement": "increase of MG-evoked currents", "setting": "[1]", "result": "approximately 40%"},
      {"measurement": "center duration in the OFT", "setting": "[5]", "result": "increased center duration in the OFT"}
    ]},
    {"smiles": "CC(=O)C=O", "note": "[pure MG, methylglyoxal]", "values": [
      {"measurement": "hypothermia", "setting": "mice", "result": "caused hypothermia"},
      {"measurement": "inward currents in CGN", "setting": "[3]; 10 μM", "result": "evoked inward currents in CGN"},
      {"measurement": "footslips on the balance beam (ataxia)", "setting": "[6]", "result": "increased footslips on the balance beam"},
      {"measurement": "time in the center of the OF", "setting": "[7]; pure MG 5 mg/kg, 10 min later", "result": "increased time in the center of the OF"},
      {"measurement": "total distance traveled in the OF", "setting": "[7]; pure MG 300 mg/kg", "result": "reduced total distance traveled in the OF"}
    ]},
    {"smiles": "Cc1ccc(-c2nc3ccc(C)cn3c2CC(=O)N(C)C)cc1", "note": "[zolpidem]", "values": [
      {"measurement": "increase of GABA-evoked currents", "setting": "[1]", "result": "approximately 17%"},
      {"measurement": "increase of MG-evoked currents", "setting": "[1]", "result": "approximately 15%"}
    ]}
  ]
}
